A word on the IC50: it is the concentration needed to halve the response being measured. Low readings indicate greater potency, high ones weaker potency.

IC50 data for eight compounds are collected here from patent publication US20120115867A1, “NEW CLASS OF HISTONE DEACETYLASE INHIBITORS” (DAC S.R.L., priority 2004, published 2012).

The test system of this assay is HDAC (nuclear fraction of Hela cells). The assay can be described thus: Assay of enzyme inhibition of HDAC (BIOMOL Kit, fluorescence). The class given is biochemical. The following applies: 30× diluted nuclear fraction of Hela cells; substrate 200 μM; 15 min at RT. The protocol:
The in-vitro activity of HDAC inhibitors was assayed by means of a biochemical assay using a BIOMOL Kit, according to the instructions from the manufacturer (Biomolecular Research Laborator). Briefly, 15 μl of 30× diluted nuclear fraction of Hela cells, was diluted to 50 μl with the assay buffer containing the HDAC inhibitor and the substrate (lysine with acetylated amino on the side chain) at a concentration of 200 μM. The samples were incubated for 15 min at RT and then exposed to a developer (10 min at RT). In this last step a fluorophore was produced, whose fluorescence was measured using an excitation wavelength of 355 nm and an emission at 460 nm. The IC50 is calculated using GraphPad Software.
The reference HDAC inhibitors marked with (*) are those disclosed in the patent application WO2006/037761.
Take `O=C(/C=C/c1cccc(/C=C/C(=O)c2ccccc2Cl)c1)NO` [Ref (*)MC1670, reference compound]: inhibition was half-maximal at 389 nM (IC50).
Then `CN1CCN(c2cc(Cl)cc(C(=O)/C=C/c3cccc(/C=C/C(=O)NO)n3)c2)CC1` [Example 11, (E)-3-(6-{(E)-3-[3-Chloro-5-(4-methyl-piperazin-1-yl)-phenyl]-3-oxo-propenyl}-pyridin-2-yl)-N-hydroxy-acrylamide], with 29 nM; and `O=C(/C=C/c1cccc(/C=C/C(=O)c2cccc(F)c2)c1)NO` [Ref (*)MC1653, reference compound], with 1370 nM.
In the case of `COc1cc(C(=O)/C=C/c2ccc(/C=C/C(=O)NO)cc2)ccc1CN1CCOCC1` [Ref (*) 48, reference compound], the IC50 amounted to 73.3 nM.
`O=C(/C=C/c1cccc(/C=C/C(=O)c2ccccc2F)c1)NO` [Ref (*)MC1661, reference compound] returned an IC50 of 130 nM. Against the preceding compound, the IC50 is about 1.8-fold higher.
The result for `O=C(/C=C/c1ccc(/C=C/C(=O)c2ccc(N3CCOCC3)cc2)c(F)c1)NO` [Ref (*) 29, reference compound] reads 2840 nM; that for `O=C(/C=C/c1cccc(/C=C/C(=O)c2cccc(Cl)c2)c1)NO` [Ref (*)MC1672, reference compound], 1460 nM; that for `O=C(/C=C/c1ccc(/C=C/C(=O)c2ccc(N3CCOCC3)cc2)cc1)NO` [Ref (*) 41, reference compound], 1360 nM.
